Source: patent US8741934B2, “Inhibitors of ion channels” (Pfizer Limited, priority 2007, dated 2014)

Biological target: T1, hSCN3A sodium channels (Homo sapiens, UniProt Q9NY46)
T1 construct: expressed in transfected cells
Experiment: hSCN3A electrophysiology, Ionworks Quattro automated platform (Table C)
Assay type: cell-based
Settings: for inhibition at 3 µM: 3 μM compound, read-out: SCN3A % INHIB HTS IWQ 3 μM; for inhibition at 10 µM: 10 μM compound, read-out: SCN3A % INHIB HTS IWQ 10 μM
Outline: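 HEK cells stably expressing hSCN3A were recorded in perforated-patch mode with 100 μg/ml amphotericin on Ionworks Quattro. The protocol used an inactivating step, a brief hyperpolarized partial recovery, then a depolarized test step. Inhibition was taken from current amplitude before versus after compound addition.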

T1 sequence (Q9NY46 whole entry): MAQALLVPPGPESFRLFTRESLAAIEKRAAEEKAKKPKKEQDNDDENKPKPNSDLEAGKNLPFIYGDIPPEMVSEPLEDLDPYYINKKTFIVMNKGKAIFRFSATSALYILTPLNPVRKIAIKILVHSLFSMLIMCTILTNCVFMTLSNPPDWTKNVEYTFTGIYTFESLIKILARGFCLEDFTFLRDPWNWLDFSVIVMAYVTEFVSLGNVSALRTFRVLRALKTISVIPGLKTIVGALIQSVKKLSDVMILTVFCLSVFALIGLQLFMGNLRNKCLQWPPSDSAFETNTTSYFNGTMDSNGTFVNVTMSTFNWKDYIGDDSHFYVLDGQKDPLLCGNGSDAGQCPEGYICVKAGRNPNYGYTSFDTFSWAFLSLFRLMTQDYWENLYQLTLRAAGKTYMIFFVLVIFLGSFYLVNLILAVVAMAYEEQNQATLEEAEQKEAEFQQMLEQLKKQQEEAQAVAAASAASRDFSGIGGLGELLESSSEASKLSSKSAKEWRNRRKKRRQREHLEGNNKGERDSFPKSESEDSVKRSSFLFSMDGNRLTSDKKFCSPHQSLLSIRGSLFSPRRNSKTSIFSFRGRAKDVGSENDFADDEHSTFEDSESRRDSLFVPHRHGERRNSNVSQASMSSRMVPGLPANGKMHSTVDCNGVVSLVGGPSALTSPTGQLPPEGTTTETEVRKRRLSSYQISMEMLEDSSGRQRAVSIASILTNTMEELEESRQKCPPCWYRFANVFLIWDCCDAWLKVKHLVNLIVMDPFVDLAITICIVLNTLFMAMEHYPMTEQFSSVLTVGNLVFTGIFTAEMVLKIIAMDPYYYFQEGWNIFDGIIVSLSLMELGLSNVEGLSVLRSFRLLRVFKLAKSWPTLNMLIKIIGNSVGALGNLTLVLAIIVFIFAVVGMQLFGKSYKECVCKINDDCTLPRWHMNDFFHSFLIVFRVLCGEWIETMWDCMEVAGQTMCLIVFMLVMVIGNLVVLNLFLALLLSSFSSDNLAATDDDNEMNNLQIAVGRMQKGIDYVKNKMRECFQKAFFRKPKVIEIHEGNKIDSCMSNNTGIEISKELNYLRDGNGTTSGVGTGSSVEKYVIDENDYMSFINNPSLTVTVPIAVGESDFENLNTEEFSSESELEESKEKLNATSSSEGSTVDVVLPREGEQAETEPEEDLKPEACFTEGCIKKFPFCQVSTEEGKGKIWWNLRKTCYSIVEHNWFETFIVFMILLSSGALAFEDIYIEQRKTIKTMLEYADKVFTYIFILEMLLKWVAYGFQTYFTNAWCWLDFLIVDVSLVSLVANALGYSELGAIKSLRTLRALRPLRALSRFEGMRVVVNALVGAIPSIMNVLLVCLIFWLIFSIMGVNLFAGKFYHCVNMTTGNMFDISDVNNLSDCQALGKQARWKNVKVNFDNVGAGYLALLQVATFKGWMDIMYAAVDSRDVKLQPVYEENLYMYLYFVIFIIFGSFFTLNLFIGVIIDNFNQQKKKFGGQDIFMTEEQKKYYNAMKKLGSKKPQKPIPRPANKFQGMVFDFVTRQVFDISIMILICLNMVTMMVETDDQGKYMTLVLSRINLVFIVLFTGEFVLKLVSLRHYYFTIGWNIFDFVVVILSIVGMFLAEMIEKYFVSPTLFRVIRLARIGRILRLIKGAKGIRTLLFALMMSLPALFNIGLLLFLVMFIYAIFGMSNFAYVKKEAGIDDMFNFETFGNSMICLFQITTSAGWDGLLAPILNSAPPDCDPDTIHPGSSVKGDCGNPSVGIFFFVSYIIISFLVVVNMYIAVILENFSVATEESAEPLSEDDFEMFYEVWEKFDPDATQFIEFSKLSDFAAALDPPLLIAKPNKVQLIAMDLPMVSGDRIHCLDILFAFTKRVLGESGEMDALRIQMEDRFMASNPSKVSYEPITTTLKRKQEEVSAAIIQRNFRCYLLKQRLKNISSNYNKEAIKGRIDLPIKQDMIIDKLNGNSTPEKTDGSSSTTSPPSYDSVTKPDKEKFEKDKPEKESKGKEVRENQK

In the case of `Cc1noc(C(NC(=O)c2ccc(S(=O)(=O)Nc3nccs3)cc2)c2ccccc2)n1` (stereo not shown) [Example 183, N-[(3-methyl-1,2,4-oxadiazol-5-yl)(phenyl)methyl]-4-[(1,3-thiazol-2-ylamino)sulfonyl]benzamide], the inhibition at 3 µM is reported as 8.9% and the inhibition at 10 µM is reported as 1.34%.

`Cc1cccc(C2(C)CN(C(=O)c3ccc(S(=O)(=O)Nc4nccs4)cc3)CCO2)c1` (stereo not shown) [Example 189, 4-{[2-Methyl-2-(3-methylphenyl)morpholin-4-yl]carbonyl}-N-1,3-thiazol-2-yl-benzenesulfonamide] showed an inhibition at 3 µM of 25.3% and an inhibition at 10 µM of 21%.

Work on `O=C(NCc1ccccc1)c1ccc(S(=O)(=O)Nc2nccs2)cc1` [Example 171, N-benzyl-4-[(1,3-thiazol-2-ylamino)sulfonyl]benzamide] yielded an inhibition at 3 µM of 39.5% and an inhibition at 10 µM of 52.8%.

For `CC(C)(NC(=O)c1ccc(S(=O)(=O)Nc2nccs2)cc1)c1ccc(F)c(F)c1` [Example 146, N-[1-(3,4-difluorophenyl)-1-methylethyl]-4-[(1,3-thiazol-2-ylamino)sulfonyl]benzamide], the inhibition at 3 µM was 24.3% and the inhibition at 10 µM was 27.9%.

With `O=C(NCc1cccc(C(F)(F)F)c1)c1ccc(S(=O)(=O)Nc2nccs2)c(Cl)c1` [Example 288, 3-Chloro-4-[(1,3-thiazol-2-ylamino)sulfonyl]-N-[3-(trifluoromethyl)benzyl]benzamide] the inhibition at 3 µM was 4.38% and the inhibition at 10 µM was 13.4%.

Molecule `CN(C(=O)c1ccc(S(=O)(=O)Nc2nccs2)cc1)C(Cc1ccccc1)c1ccccc1` (stereo not shown) [Example 251, N-(1,2-diphenylethyl)-N-methyl-4-[(1,3-thiazol-2-ylamino)sulfonyl]benzamide] has an inhibition at 3 µM of 19.9% and an inhibition at 10 µM of 0.8%.

Molecule `Cc1ccc(F)cc1CNC(=O)c1ccc(S(=O)(=O)Nc2nccs2)cc1` [Example 58, N-(5-fluoro-2-methylbenzyl)-4-[(1,3-thiazol-2-ylamino)sulfonyl]benzamide] has an inhibition at 3 µM of 37.4% and an inhibition at 10 µM of 49.7%.

`O=C(c1ccc(S(=O)(=O)Nc2nccs2)cc1)N1CCCC1Cc1ccccc1` (stereo not shown) [Example 197, 4-[(2-Benzylpyrrolidin-1-yl)carbonyl]-N-1,3-thiazol-2-yl-benzenesulfonamide] gave an inhibition at 3 µM of 17.6% and an inhibition at 10 µM of 17.4%.

In the case of `O=C(NCc1ccccc1OC(F)F)c1ccc(S(=O)(=O)Nc2nccs2)cc1` [Example 66, N-[2-(difluoromethoxy)benzyl]-4-[(1,3-thiazol-2-ylamino)sulfonyl]benzamide], the inhibition at 3 µM is reported as 16.4% and the inhibition at 10 µM is reported as 34.4%.

`O=C(c1ccc(S(=O)(=O)Nc2nccs2)cc1)N1CCCC(COc2ccc(F)cc2)C1` (stereo not shown) [Example 264, 4-({3-[(4-Fluorophenoxy)methyl]piperidin-1-yl}carbonyl)-N-1,3-thiazol-2-yl-benzenesulfonamide] showed an inhibition at 3 µM of 16.9% and an inhibition at 10 µM of 14.8%.

Work on `O=C(c1ccc(S(=O)(=O)Nc2nccs2)cc1)N1CCCO[C@H]1Cc1ccccc1` [Example 214, 4-{[(2S)-2-benzyl-1,3-oxazinan-3-yl]carbonyl}-N-1,3-thiazol-2-yl-benzenesulfonamide] yielded an inhibition at 3 µM of 9.25% and an inhibition at 10 µM of 4.51%.

`O=C(NCC1(c2ccccc2)CC1)c1ccc(S(=O)(=O)Nc2nccs2)cc1` [Example 153, N-[(1-phenylcyclopropyl)methyl]-4-[(1,3-thiazol-2-ylamino)sulfonyl]benzamide] showed an inhibition at 3 µM of 15.9% and an inhibition at 10 µM of 32.9%.

With `CC(Cc1ccc(C(F)(F)F)cc1)NC(=O)c1ccc(S(=O)(=O)Nc2nccs2)cc1` (stereo not shown) [Example 130, N-{1-methyl-2-[4-(trifluoromethyl)phenyl]ethyl}-4-[(1,3-thiazol-2-ylamino)sulfonyl]benzamide] the inhibition at 3 µM was 23.1% and the inhibition at 10 µM was 16.5%.

`O=C(N[C@@H]1CCC[C@@H]1c1ccc(F)cc1)c1ccc(S(=O)(=O)Nc2nccs2)cc1` [Example 132, N-[(1R,2R)-2-(4-fluorophenyl)cyclopentyl]-4-[(1,3-thiazol-2-ylamino)sulfonyl]benzamide] showed an inhibition at 3 µM of 19.7% and an inhibition at 10 µM of 15.3%.

`O=C(c1ccc(S(=O)(=O)Nc2nccs2)cc1)N1CCOCC(Cc2ccc(F)cn2)C1` (stereo not shown) [Example 216, 4-({6-[(5-Fluoropyridin-2-yl)methyl]-1,4-oxazepan-4-yl}carbonyl)-N-1,3-thiazol-2-yl-benzenesulfonamide] gave an inhibition at 3 µM of 10.8% and an inhibition at 10 µM of 6.67%.

With `O=C(c1ccc(S(=O)(=O)Nc2nccs2)cc1)N1CCCCC1CCn1cccn1` (stereo not shown) [Example 190, 4-({2-[2-(1H-pyrazol-1-yl)ethyl]piperidin-1-yl}carbonyl)-N-1,3-thiazol-2-yl-benzenesulfonamide] the inhibition at 3 µM was 2.77% and the inhibition at 10 µM was -8.21%.

`O=C(c1ccc(S(=O)(=O)Nc2nccs2)cc1)N1CCOC(CN2Cc3ccccc3C2=O)C1` (stereo not shown) [Example 210, 4-({2-[(1-Oxo-1,3-dihydro-2H-isoindol-2-yl)methyl]morpholin-4-yl}carbonyl)-N-1,3-thiazol-2-ylbenzenesulfonamide] was tested, and the inhibition at 3 µM was 4.03% and the inhibition at 10 µM was 11.9%.

With `O=C(c1ccc(S(=O)(=O)Nc2nccs2)cc1)N1CCCCCC1c1ccccc1` (stereo not shown) [Example 268, 4-[(2-Phenylazepan-1-yl)carbonyl]-N-1,3-thiazol-2-yl-benzenesulfonamide] the inhibition at 3 µM was 11% and the inhibition at 10 µM was 10.6%.

`C[C@@H](c1ccccc1)N(C)C(=O)c1ccc(S(=O)(=O)Nc2nccs2)cc1` [Example 256, N-methyl-N-[(1S)-1-phenylethyl]-4-[(1,3-thiazol-2-yl-amino)sulfonyl]benzamide] showed an inhibition at 3 µM of 1.49% and an inhibition at 10 µM of 6.44%.

`O=C(NC1(c2cccc(Cl)c2)CC1)c1ccc(S(=O)(=O)Nc2nccs2)cc1` [Example 135, N-[1-(3-chlorophenyl)cyclopropyl]-4-[(1,3-thiazol-2-ylamino)sulfonyl]benzamide] gave an inhibition at 3 µM of 27.4% and an inhibition at 10 µM of 30.1%.

With `COc1ccc(CCNC(=O)c2ccc(S(=O)(=O)Nc3nccs3)cc2)cc1` [Example 169, N-[2-(4-methoxyphenyl)ethyl]-4-[(1,3-thiazol-2-ylamino)sulfonyl]benzamide] the inhibition at 3 µM was 35.3% and the inhibition at 10 µM was 27.3%.

Work on `O=C(c1ccc(S(=O)(=O)Nc2nccs2)cc1)N(Cc1ccccc1)[C@@H]1CCCC[C@@H]1CO` [Example 226, N-benzyl-N-[(1R,2S)-2-(hydroxymethyl)cyclohexyl]-4-[(1,3-thiazol-2-ylamino)sulfonyl]benzamide] yielded an inhibition at 3 µM of -1.52% and an inhibition at 10 µM of 13.9%.

In the case of `CC(NC(=O)c1ccc(S(=O)(=O)Nc2nccs2)cc1)c1ccc(F)cc1` (stereo not shown) [Example 103, N-[1-(4-fluorophenyl)ethyl]-4-[(1,3-thiazol-2-ylamino)sulfonyl]benzamide], the inhibition at 3 µM is reported as 21.2% and the inhibition at 10 µM is reported as 46.8%.

In the case of `O=C(N[C@@H]1CCC[C@@H]1c1ccccc1)c1ccc(S(=O)(=O)Nc2nccs2)cc1` [Example 138, N-[(1R,2R)-2-phenylcyclopentyl]-4-[(1,3-thiazol-2-ylamino)sulfonyl]benzamide], the inhibition at 3 µM is reported as 16.2% and the inhibition at 10 µM is reported as 11.2%.

With `O=C(NCc1cc(F)ccc1F)c1ccc(S(=O)(=O)Nc2nccs2)cc1` [Example 87, N-(2,5-difluorobenzyl)-4-[(1,3-thiazol-2-ylamino)sulfonyl]benzamide] the inhibition at 3 µM was 36.9% and the inhibition at 10 µM was 46.2%.

With `O=C(c1ccc(S(=O)(=O)Nc2nccs2)cc1)N(Cc1ccc(F)cc1)C1CC1` [Example 230, N-cyclopropyl-N-(4-fluorobenzyl)-4-[(1,3-thiazol-2-yl-amino)sulfonyl]benzamide] the inhibition at 3 µM was 16.7% and the inhibition at 10 µM was -0.51%.

Work on `O=C(c1ccc(S(=O)(=O)Nc2nccs2)cc1)N1CCCCCC1c1ccccn1` (stereo not shown) [Example 255, 4-[(2-Pyridin-2-ylazepan-1-yl)carbonyl]-N-1,3-thiazol-2-yl-benzenesulfonamide] yielded an inhibition at 3 µM of 4.16% and an inhibition at 10 µM of 6.56%.

Work on `C[C@@H]([C@H](O)c1ccccc1)N(C)C(=O)c1ccc(S(=O)(=O)Nc2nccs2)cc1` [Example 188, N-[(1S,2R)-2-hydroxy-1-methyl-2-phenylethyl]-N-methyl-4-[(1,3-thiazol-2-ylamino)sulfonyl]benzamide] yielded an inhibition at 3 µM of 14.5% and an inhibition at 10 µM of 1.03%.

In the case of `COc1ccc(CC2CCCN(C(=O)c3ccc(S(=O)(=O)Nc4nccs4)cc3)C2)cc1` (stereo not shown) [Example 270, 4-{[3-(4-Methoxybenzyl)piperidin-1-yl]carbonyl}-N-1,3-thiazol-2-yl-benzenesulfonamide], the inhibition at 3 µM is reported as 19.2%, the inhibition at 10 µM is reported as 45.7% and the “SCN3A INHIB INACT DRC EP IWQ EMAX” value (Emax of dose-response curve, inactivated state) is reported as 53.7. For the same molecule, the IC50 (read-out: SCN3A IWQ IC-50) was 27.7 µM.

Work on `CN(CC(O)c1ccccc1)C(=O)c1ccc(S(=O)(=O)Nc2nccs2)cc1` (stereo not shown) [Example 250, N-(2-hydroxy-2-phenylethyl)-N-methyl-4-[(1,3-thiazol-2-yl-amino)sulfonyl]benzamide] yielded an inhibition at 3 µM of -4.32% and an inhibition at 10 µM of 0.12%.

In the case of `O=C(NCc1cccc(Cl)c1)c1ccc(S(=O)(=O)Nc2nccs2)cc1` [Example 152, N-(3-chlorobenzyl)-4-[(1,3-thiazol-2-ylamino)sulfonyl]benzamide], the inhibition at 3 µM is reported as 42.2% and the inhibition at 10 µM is reported as 56.3%.

With `COCCCOC1CCCN(C(=O)c2ccc(S(=O)(=O)Nc3nccs3)cc2)C1` (stereo not shown) [Example 260, 4-{[3-(3-Methoxypropoxy)piperidin-1-yl]carbonyl}-N-1,3-thiazol-2-yl-benzenesulfonamide] the inhibition at 3 µM was -3.05% and the inhibition at 10 µM was 10.5%.

Work on `O=C(NC(c1c(F)cccc1F)C1CC1)c1ccc(S(=O)(=O)Nc2nccs2)cc1` (stereo not shown) [Example 140, N-[cyclopropyl(2,6-difluorophenyl)methyl]-4-[(1,3-thiazol-2-ylamino)sulfonyl]benzamide] yielded an inhibition at 3 µM of 2.34% and an inhibition at 10 µM of 18.9%.

Work on `O=C(NCc1cc(C(F)(F)F)ccc1F)c1ccc(S(=O)(=O)Nc2nccs2)cc1` [Example 76, N-[2-fluoro-5-(trifluoromethyl)benzyl]-4-[(1,3-thiazol-2-ylamino)sulfonyl]benzamide] yielded an inhibition at 3 µM of 35.8% and an inhibition at 10 µM of 52.1%.
